Data set [1] concerns Staphylococcus aureus. Kind of data set: Antibacterial activity against Staphylococcus aureus MTCC 96 assessed as zone of inhibition at 50 ug/ml by well diffusion assay. Format: functional. The settings on record: read-out: IZ. Background: Agar diffusion results depend on both activity and mobility in agar.
The test system of data set [2] is Staphylococcus epidermidis. Kind of data set: Antibacterial activity against Staphylococcus epidermidis MTCC 435 assessed as zone of inhibition at 50 ug/ml by well diffusion assay. In kind it is functional. The settings on record: read-out: IZ.
Data set [3] has as its system Pseudomonas aeruginosa. Kind of data set: Antibacterial activity against Pseudomonas aeruginosa MTCC 741 assessed as zone of inhibition at 50 ug/ml by well diffusion assay. In kind it is functional. The settings on record: read-out: IZ.
Data set [4] concerns Escherichia coli. Kind of data set: Antibacterial activity against Escherichia coli MTCC 443 assessed as zone of inhibition at 50 ug/ml by well diffusion assay. The settings on record: read-out: IZ. Format: functional.
The test system of data set [5] is Aspergillus niger. Kind of data set: Antifungal activity against Aspergillus niger MTCC 282 assessed as zone of inhibition at 100 ug/ml by well diffusion assay. Format: functional. The settings on record: read-out: IZ.
The subject of data set [6] is Candida albicans. Kind of data set: Antifungal activity against Candida albicans MTCC 227 assessed as zone of inhibition at 100 ug/ml by well diffusion assay. Format: functional. The settings on record: read-out: IZ.
Data set [7] deals with Rhizopus arrhizus. Put plainly: Antifungal activity against Rhizopus oryzae MTCC 262 assessed as zone of inhibition at 100 ug/ml by well diffusion assay. Format: functional. Conditions: read-out: IZ.
Data set [8] deals with Saccharomyces cerevisiae. Kind of data set: Antifungal activity against Saccharomyces cerevisiae MTCC 36 assessed as zone of inhibition at 100 ug/ml by well diffusion assay. In kind it is functional. Conditions: read-out: IZ.
Data set [9] concerns HepG2. Put plainly: Antiproliferative activity against human HepG2 cells assessed as inhibition of cell proliferation incubated for 48 hrs by MTT assay. Format: functional, cell-based. Conditions: HepG2, 48 h. (In general: Tetrazolium dyes change colour on reduction, which living cells bring about.)
Data set [10] deals with SMMC-7721. Put plainly: Antiproliferative activity against human SMMC-7721 cells assessed as inhibition of cell proliferation incubated for 48 hrs by MTT assay. In kind it is functional, cell-based. Conditions: SMMC-7721, 48 h.
Data set [11] concerns HCT-116. Put plainly: Antiproliferative activity against human HCT-116 cells assessed as inhibition of cell proliferation incubated for 48 hrs by MTT assay. In kind it is functional, cell-based. Conditions: HCT-116, 48 h.
Data set [12] has as its system K562. Put plainly: Antiproliferative activity against human K562 cells assessed as inhibition of cell proliferation incubated for 48 hrs by MTT assay. Format: functional, cell-based. The settings on record: K562, 48 h.
The subject of data set [13] is MDA-MB-231. Kind of data set: Antiproliferative activity against human MDA-MB-231 cells assessed as inhibition of cell proliferation incubated for 48 hrs by MTT assay. In kind it is functional, cell-based. Conditions: MDA-MB-231, 48 h.
Data set [14] is described as follows: Antiproliferative activity against human QSG7701 cells assessed as inhibition of cell proliferation incubated for 48 hrs by MTT assay. In kind it is toxicity, cell-based.
The nature of data set [15]: Cytotoxicity against human QSG7701 cells assessed as inhibition of cell growth incubated for 48 hrs by MTT assay. In kind it is toxicity, cell-based.

pIC50: −log10 of the molar value.

Regarding `CCC1=C(C(=O)OC)C(CN2C(=O)c3cccc4cccc(c34)C2=O)NC(=S)N1` (stereo unspecified), the zone of inhibition at 50 µg/mL in [1] was found to be 15 mm; in [2], 15 mm; in data set [3] it was 12 mm; in data set [4] it was 12 mm. Besides, the zone of inhibition at 100 µg/mL in data set [5], in data set [6], in data set [7] and in [8] was 12 mm in each case.
`CN(C)CCN1C(=O)c2cccc3cc(NC(=O)CNCCCNCCCCNCCCN)cc(c23)C1=O`: the pIC50 in data set [9], in data set [10], in [11], in data set [12] and in [13] was 5.19 each time. For the same molecule, the IC50 at 48 h in [14] amounted to 6.42 µM.
As for `CN(C)CCN1C(=O)c2cccc3cc(NC(=O)NCCCNCCCNCCCCN)cc(c23)C1=O`, the pIC50 in data set [9], in data set [10], in data set [11], in data set [12] and in data set [13] was less than 4.30 throughout. The IC50 at 48 h in data set [14] was more than 50 µM.
On to `CCC1=C(C(=O)Oc2ccccc2)C(CN2C(=O)c3cccc4cccc(c34)C2=O)NC(=O)N1` (stereo unspecified), for which the zone of inhibition at 50 µg/mL in [1] is 15 mm; in data set [2] it was 15 mm; in [3] it was 12 mm; in [4] it was 12 mm. Also, the zone of inhibition at 100 µg/mL in [5], in data set [6], in data set [7] and in data set [8] was 12 mm each time.
As for `CN(C)CCNCC(=O)Nc1cc2c3c(cccc3c1)C(=O)N(CCN(C)C)C2=O`, the pIC50 in [9], in data set [10], in data set [11], in data set [12] and in [13] was 5.19 in each case. For the same molecule, the IC50 at 48 h in data set [14] worked out at 6.42 µM.
`CCC1=C(C(=O)Oc2ccccc2)C(CN2C(=O)c3cccc4cccc(c34)C2=O)NC(=S)N1` (stereo unspecified): the zone of inhibition at 50 µg/mL stood at 15 mm in [1], 15 mm in data set [2], 12 mm in data set [3] and 12 mm in data set [4]. For the same molecule, the zone of inhibition at 100 µg/mL in data set [5], in data set [6], in data set [7] and in [8] was 12 mm throughout.
Turning to `CN(C)CCN1C(=O)c2cccc3cc(NC(=O)NCCCNCCCCN)cc(c23)C1=O`, the pIC50 in data set [9], in [10], in data set [11], in data set [12] and in [13] was less than 4.30 throughout. Also, in data set [14], the IC50 at 48 h was more than 50 µM.
As to `Clc1ccccc1C(c1ccccc1)(c1ccccc1)n1ccnc1` [CLOTRIMAZOLE], the zone of inhibition at 100 µg/mL in [5], in data set [6], in [7] and in data set [8] was 22 mm each time.
For the molecule `COC(=O)C1=C(C)NC(=O)NC1CN1C(=O)c2cccc3cccc(c23)C1=O` (stereo unspecified), the zone of inhibition at 50 µg/mL turned out to be 15 mm in data set [1], 15 mm in data set [2], 12 mm in [3] and 12 mm in data set [4]. The zone of inhibition at 100 µg/mL in data set [5], in [6], in [7] and in [8] was 12 mm each time.
Consider `CN(C)CCN1C(=O)c2cccc3cc(NC(=O)CNCCCCNCCCCNCCCCN)cc(c23)C1=O`, for which the negative logarithm of the IC50 (pIC50) in data set [9], in [10], in data set [11], in data set [12] and in data set [13] was 5.19 in each case. The IC50 at 48 h in [14] worked out at 6.42 µM.
As for `CCC1=C(C(=O)OC)C(CN2C(=O)c3cccc4cccc(c34)C2=O)NC(=O)N1` (stereo unspecified), the zone of inhibition at 50 µg/mL in data set [1] is 15 mm; in data set [2], 15 mm; in [3], 12 mm; in data set [4], 12 mm. Besides, the zone of inhibition at 100 µg/mL in [5], in [6], in [7] and in [8] was 12 mm each time.
Regarding `CCOC(=O)C1=C(CC)NC(=S)NC1CN1C(=O)c2cccc3cccc(c23)C1=O` (stereo unspecified), the zone of inhibition at 50 µg/mL was 15 mm in [1], 15 mm in data set [2], 12 mm in data set [3] and 12 mm in data set [4]. In addition, the zone of inhibition at 100 µg/mL in data set [5], in [6], in [7] and in data set [8] was 12 mm throughout.
Take `CCOC(=O)C1=C(CC)NC(=O)NC1CN1C(=O)c2cccc3cccc(c23)C1=O` (stereo unspecified): the zone of inhibition at 50 µg/mL was 15 mm in [1], 15 mm in data set [2], 12 mm in data set [3] and 12 mm in data set [4]. Also, the zone of inhibition at 100 µg/mL in data set [5], in data set [6], in [7] and in data set [8] was 12 mm throughout.
In the case of `CN(C)CCN1C(=O)c2cccc3cc(NC(=O)NCCCN)cc(c23)C1=O`, the negative logarithm of the IC50 (pIC50) in data set [9], in [10], in [11], in [12] and in data set [13] was less than 4.30 in each case. In addition, the IC50 at 48 h in data set [14] is more than 50 µM.
Turning to `CN(C)CCN1C(=O)c2cccc3cc(NC(=O)CNCCCCNCCCN)cc(c23)C1=O`, the pIC50 in data set [9], in data set [10], in [11], in data set [12] and in [13] was 5.19 throughout. The half-maximal inhibitory concentration (IC50) at 48 h in data set [14] is 6.42 µM.
Turning to `CCCC1=C(C(=O)OC)C(CN2C(=O)c3cccc4cccc(c34)C2=O)NC(=O)N1` (stereo unspecified), the zone of inhibition at 50 µg/mL was 15 mm in [1], 15 mm in [2], 12 mm in [3] and 12 mm in data set [4]. The zone of inhibition at 100 µg/mL in [5], in data set [6], in data set [7] and in data set [8] was 12 mm throughout.
For `CN(C)CCN1C(=O)c2cccc3cc(NC(=O)CNCCCN)cc(c23)C1=O`, the pIC50 in data set [9], in [10], in [11], in data set [12] and in data set [13] was 5.19 in each case. Further, the IC50 at 48 h in data set [14] was found to be 6.42 µM.
Turning to `CN(C)CCN1C(=O)c2cccc3cc(NC(=O)NCCCCN)cc(c23)C1=O`, the negative-log IC50 (pIC50) in data set [9], in data set [10], in [11], in [12] and in data set [13] was less than 4.30 throughout. For the same molecule, the IC50 at 48 h in data set [14] is more than 50 µM.
As for `NCCCNCCCCNCCCN1C(=O)c2cccc3cccc(c23)C1=O`, in [15], the IC50 at 48 h was more than 50 µM.
In the case of `CCCCNC(=O)Nc1cc2c3c(cccc3c1)C(=O)N(CCN(C)C)C2=O`, the pIC50 in data set [9], in data set [10], in [11], in [12] and in data set [13] was less than 4.30 each time. Further, in data set [14], the IC50 at 48 h is more than 50 µM.
Turning to `CN(C)CCNC(=O)Nc1cc2c3c(cccc3c1)C(=O)N(CCN(C)C)C2=O`, the pIC50 in data set [9] was less than 4.30; in data set [10], 5.06; in [11], 5.06; in data set [12], 5.06; in [13] it was less than 4.30. Further, in data set [14], the IC50 at 48 h was more than 50 µM.
For the molecule `CCCCCCCNC(=O)Nc1cc2c3c(cccc3c1)C(=O)N(CCN(C)C)C2=O`, the pIC50 in data set [9], in data set [10], in data set [11], in data set [12] and in data set [13] was less than 4.30 each time. Moreover, the 50% inhibitory concentration (IC50) at 48 h in [14] was more than 50 µM.
For `CN[C@@H]1[C@H](O[C@H]2[C@H](O[C@H]3[C@H](O)[C@@H](O)[C@H](N=C(N)N)[C@@H](O)[C@@H]3N=C(N)N)O[C@@H](C)[C@]2(O)C=O)O[C@@H](CO)[C@H](O)[C@H]1O` [STREPTOMYCIN], the zone of inhibition at 50 µg/mL in [1] amounted to 21 mm; in data set [2], 23 mm; in data set [3], 24 mm; in data set [4], 29 mm.
Consider `CN(C)CCN1C(=O)c2cccc3cc(NC(=O)CNCCCNCCCNCCCN)cc(c23)C1=O`, for which the pIC50 in data set [9], in data set [10], in data set [11], in data set [12] and in data set [13] was 5.19 each time. Further, the IC50 at 48 h in data set [14] worked out at 6.42 µM.

What is called pIC50 is the IC50 on a negative log10 scale, so that one unit is a factor of ten. The IC50 is the concentration that inhibits the measured activity by half.

Values taken from ChEMBL document CHEMBL5244223, “l,8-Naphthalimide based DNA intercalators and anticancer agents. A systematic review from 2007 to 2017” (Eur J Med Chem, 2018).
